“Also recorded” adds a separate entry of the source.
Experiments:
[1] = system: double-stranded DNA (cDNA extracted from HeLa cells, b-actin primer); test: Compound analysis through real-time PCR by intercalating method (double-stranded DNA binding dyes); assay type: biochemical; conditions: for fluorescence signal / fluorescence intensity during DNA synthesis (FIG. 1): 1 uL of 200 uM dye in 20 uL reaction, fluorescence wavelength of 497 nm detected; for Cq value (FIG. 3): 45 cycles, HeLa cDNA template
Protocol: Compounds 8, 9, 10, 15, 16, and 17 were dissolved in dimethyl sulfoxide to prepare 5 mM of a stock solution. The prepared stock solution was diluted in a Tris-EDTA buffer (pH 7.5) and prepared at a concentration of 200 uM.
For Reference material 1, 10,000× of the stock solution was diluted to a concentration of 20× through a Tris-EDTA buffer (pH 7.5). For Reference material 2, 20,000× of the stock solution was diluted to a concentration of 20× through a Tris-EDTA buffer (pH 7.5).
Reference materials 1 (Evagreen) and 2 (Invitrogen Sybr Green) and Compounds 8, 9, 10, 15, 16, and 17 were compared and verified by an intercalating method using a double-stranded DNA binding dyes through real-time PCR. cDNA extracted from HeLa cells was used, and b-actin (Forward 5′-CATCGAGCACGGCATCGTCA-3′, Reverse 5′-TAGCACAGCCTGGATAGCAAC-3′) was used as a primer. Real-time PCR reaction was performed using a CFX96 touch real-time PCR detection system (BIO-RAD). The PCR mixture consisted of a total 20 uL of reaction solution containing 1 uL of a forward primer, 1 uL of a reverse primer, 10 uL of a PCR master mix (TAKARA), 1 uL of a reference material and each compound (Compounds 8, 9, 10, 15, 16, 17), and 1 uL of template cDNA. PCR conditions were as follows: (a) In a pre-denaturing step, 1 minute at 95° C. (b) 45 cycles are configured as a cycle consisting of at 95° C. for 15 seconds, 58° C. for 30 seconds and 72° C. for 30 seconds, and a fluorescence wavelength of 497 nm was detected in a cycle of 30 seconds at 72° C.

[2] = Stability analysis: storage in incubator at 60° C. for 3 days, then real-time PCR fluorescence; assay type: physicochemical; conditions: for change in fluorescence intensity after reaction at 60° C. for 3 days (FIGS. 11-14): stored in incubator at 60° C. for 3 days, real-time PCR for each template concentration
Protocol: Stability analysis was performed by storing Reference materials 1 (Evagreen) and 2 (Invitrogen Sybr Green) and Compound 16 in an incubator at 60° C. The three materials were stored in an incubator at 60° C. for 3 days, and the fluorescence signals for each template concentration were analyzed by real-time PCR analysis as in (1) above, and the PCR product was electrophoresed to analyze whether normal DNA synthesis was achieved. After real-time-PCR, synthetic DNA and a 6× Loading dye (BioActs) were mixed, and then electrophoresis was performed for 35 minutes on a 2% agarose gel (Simga-aldrich).

| Compound | fluorescence signal / fluorescence intensity during DNA synthesis (FIG. 1) [1] | Cq value (FIG. 3) [1] | change in fluorescence intensity after reaction at 60° C. for 3 days (FIGS. 11-14) [2] | Cq value relative to Reference material 1 (FIG. 6) ([1]; compared with Evagreen) | fluorescence intensity relative to Reference materials 1 and 2 (FIG. 4) ([1]; compared with Evagreen and Sybr Green at 20×) | stability compared with Reference material 2 ([2]; 60° C. for 3 days) |
| --- | --- | --- | --- | --- | --- | --- |
| CN(C)CCCNC(=O)CCCN(C)C1=C/C(=C\c2oc3ccccc3[n+]2C)c2ccccc2N1c1ccccc1 [Compound 9] | not strongly observed | not much confirmed |  |  |  |  |
| CCCN(CCCN(C)C)c1cc(/C=C2/Sc3ccccc3N2C)c2ccccc2[n+]1-c1ccccc1 [Reference material 2, reference compound] |  |  | decreased by about half |  |  |  |
| CCCCCCCCNC(=O)CCCN(C)C1=C/C(=C\c2oc3ccccc3[n+]2C)c2ccccc2N1c1ccccc1 [Compound 17] | emit visible fluorescence; also recorded: not much strong | hardly confirmed |  |  |  |  |
| C=CS(=O)(=O)CCNC(=O)CCCN(C)C1=C/C(=C\c2oc3ccccc3[n+]2C)c2ccccc2N1c1ccccc1 [Compound 8] | not strongly observed | not much confirmed |  |  |  |  |
| C=CS(=O)(=O)CCNC(=O)CCCN(C)C1=C/C(=C\c2sc3ccccc3[n+]2C)c2ccccc2N1c1ccccc1 [Compound 15] | emit visible fluorescence; also recorded: not much strong |  |  |  |  |  |
| CN(C)CCCNC(=O)CCCN(C)C1=C/C(=C\c2sc3ccccc3[n+]2C)c2ccccc2N1c1ccccc1 [Compound 16] | emit visible fluorescence; also recorded: very strong | fastest | no significant change | faster than that of Reference material 1 | two times higher | more stable material than Reference material 2 |
| CCCCCCCCNC(=O)CCCN(C)C1=C/C(=C\c2oc3ccccc3[n+]2C)c2ccccc2N1c1ccccc1 [Compound 10] | not strongly observed | not much confirmed |  |  |  |  |
